Measurements taken from patent US9850203B2, “Autotaxin inhibitor compounds” (PharmAkea, Inc., priority 2013, dated 2017).

target: human autotaxin (ATX) (Homo sapiens (Human), UniProt Q13822); experiment: Human Autotaxin Assay; type: biochemical; details: concentrated conditioned media from Hep3B cells; LPC substrate, choline release
Method in brief: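 Autotaxin source: Hep3B conditioned medium concentrated 20-fold, preincubated with compound 15 min at 37° C in lyso-PLD buffer (100 mM Tris pH 9, 500 mM NaCl, 5 mM MgCl2, 5 mM CaCl2, 0.05% Triton X-100, ±0.2% fatty-acid-free HSA). 100 uM LPC (14:0) then added, 1.5-3 hours at 37° C; choline release measured.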

IC50, ≤ 500 nM:
Cc1c(Sc2cccc(C(=O)O)c2F)c2ccc(Cl)c(F)c2n1CC(=O)N1C[C@@H](O)[C@H](F)C1 [Compound 2-66, 3-((6-Chloro-7-fluoro-1-(2-((3R,4R)-3-fluoro-4-hydroxypyrrolidin-1-yl)-2-oxoethyl)-2-methyl-1H-indol-3-yl)thio)-2-fluorobenzoic acid]
Cc1c(Sc2cccc(C(=O)O)c2F)c2ccc(Cl)c(F)c2n1CC(=O)N1CC(C#N)C1 [Compound 2-67, 3-((6-Chloro-1-(2-(3-cyanoazetidin-1-yl)-2-oxoethyl)-7-fluoro-2-methyl-1H-indol-3-yl)thio)-2-fluorobenzoic acid]
Cc1c(Sc2cccc(C(=O)O)c2F)c2ccc(Cl)c(F)c2n1CC(=O)N1CCC(O)(c2ccccc2)C1 (stereo not drawn) [Compound 2-68, 3-((6-Chloro-7-fluoro-1-(2-(3-hydroxy-3-phenylpyrrolidin-1-yl)-2-oxoethyl)-2-methyl-1H-indol-3-yl)thio)-2-fluorobenzoic acid]
Cc1c(Sc2cccc(C(=O)O)c2F)c2ccc(Cl)c(F)c2n1CC(=O)N1C[C@H](O)[C@@H](N(C)C)C1 [Compound 2-69, 3-((6-Chloro-1-(2-((3S,4S)-3-(dimethylamino)-4-hydroxypyrrolidin-1-yl)-2-oxoethyl)-7-fluoro-2-methyl-1H-indol-3-yl)thio)-2-fluorobenzoic acid]
Cc1c(Sc2cccc(C(=O)O)c2F)c2ccc(Cl)c(F)c2n1CC(=O)N1C[C@H](O)[C@@H](N2CCN(C)CC2)C1 [Compound 2-70, 3-((6-Chloro-7-fluoro-1-(2-((3S,4S)-3-hydroxy-4-(4-methylpiperazin-1-yl)pyrrolidin-1-yl)-2-oxoethyl)-2-methyl-1H-indol-3-yl)thio)-2-fluorobenzoic acid]
Cc1c(Sc2cccc(C(=O)O)c2F)c2ccc(Cl)c(F)c2n1CC(=O)N1CC(CN(C)C)C1 [Compound 2-71, 3-((6-Chloro-1-(2-(3-((dimethylamino)methyl)azetidin-1-yl)-2-oxoethyl)-7-fluoro-2-methyl-1H-indol-3-yl)thio)-2-fluorobenzoic acid]
Cc1c(Sc2cccc(C(=O)O)c2F)c2ccc(Cl)c(F)c2n1CC(=O)N1CCC2(C1)OCCO2 [Compound 2-72, 3-((6-Chloro-7-fluoro-2-methyl-1-(2-oxo-2-(1,4-dioxa-7-azaspiro[4.4]nonan-7-yl)ethyl)-1H-indol-3-yl)thio)-2-fluorobenzoic acid]
Cc1c(Sc2cccc(C(=O)O)c2F)c2ccc(Cl)c(F)c2n1CCN1CCc2ccccc21 [Compound 2-73, Sodium 3-((6-chloro-7-fluoro-1-(2-(indolin-1-yl)ethyl)-2-methyl-1H-indol-3-yl)thio)-2-fluorobenzoate]
Cc1c(Sc2cccc(C(=O)O)c2F)c2ccc(Cl)c(F)c2n1CCN1CC2(CC2)c2ccccc21 [Compound 2-74, Sodium 3-((6-chloro-7-fluoro-2-methyl-1-(2-(spiro[cyclopropane-1,3′-indolin]-1′-yl)ethyl)-1H-indol-3-yl)thio)-2-fluorobenzoate]
Cc1c(Sc2cccc(C(=O)O)c2F)c2ccc(Cl)c(F)c2n1CCN1CC2(CCC2)c2ccccc21 [Compound 2-75, 3-((6-Chloro-7-fluoro-2-methyl-1-(2-(spiro[cyclobutane-1,3′-indolin]-1′-yl)ethyl)-1H-indol-3-yl)thio)-2-fluorobenzoic acid]
Cc1c(Sc2cccc(C(=O)O)c2F)c2ccc(Cl)c(F)c2n1CC(=O)N1CC2(CC2)c2cc(F)ccc21 [Compound 3-23, 3-[6-Chloro-7-fluoro-1-[2-(5′-fluorospiro[cyclopropane-1,3′-indoline]-1′-yl)-2-oxo-ethyl]-2-methyl-indol-3-yl]sulfanyl-2-fluoro-benzoic acid]
Cc1c(Sc2cccc(C(=O)O)c2F)c2ccc(Cl)c(F)c2n1CC(=O)N1CC2(CCC2)c2c(F)cccc21 [Compound 3-96, 3-((6-Chloro-7-fluoro-1-(2-(4′-fluorospiro[cyclobutane-1,3′-indolin]-1′-yl)-2-oxoethyl)-2-methyl-1H-indol-3-yl)thio)-2-fluorobenzoic acid]
